Source: article PMC10190190 (Journal of Enzyme Inhibition and Medicinal Chemistry, 2023)

Legend:
Type in all cases: biochemical
[1] = biological target: HDAC4 (Homo sapiens, UniProt P56524); assay: HDAC activity assay, HDAC4
[2] = biological target: T1, HDAC6 (Homo sapiens, UniProt Q9UBN7); assay: HDAC activity assay, HDAC6
T1 sequence (Q9UBN7 1-1215): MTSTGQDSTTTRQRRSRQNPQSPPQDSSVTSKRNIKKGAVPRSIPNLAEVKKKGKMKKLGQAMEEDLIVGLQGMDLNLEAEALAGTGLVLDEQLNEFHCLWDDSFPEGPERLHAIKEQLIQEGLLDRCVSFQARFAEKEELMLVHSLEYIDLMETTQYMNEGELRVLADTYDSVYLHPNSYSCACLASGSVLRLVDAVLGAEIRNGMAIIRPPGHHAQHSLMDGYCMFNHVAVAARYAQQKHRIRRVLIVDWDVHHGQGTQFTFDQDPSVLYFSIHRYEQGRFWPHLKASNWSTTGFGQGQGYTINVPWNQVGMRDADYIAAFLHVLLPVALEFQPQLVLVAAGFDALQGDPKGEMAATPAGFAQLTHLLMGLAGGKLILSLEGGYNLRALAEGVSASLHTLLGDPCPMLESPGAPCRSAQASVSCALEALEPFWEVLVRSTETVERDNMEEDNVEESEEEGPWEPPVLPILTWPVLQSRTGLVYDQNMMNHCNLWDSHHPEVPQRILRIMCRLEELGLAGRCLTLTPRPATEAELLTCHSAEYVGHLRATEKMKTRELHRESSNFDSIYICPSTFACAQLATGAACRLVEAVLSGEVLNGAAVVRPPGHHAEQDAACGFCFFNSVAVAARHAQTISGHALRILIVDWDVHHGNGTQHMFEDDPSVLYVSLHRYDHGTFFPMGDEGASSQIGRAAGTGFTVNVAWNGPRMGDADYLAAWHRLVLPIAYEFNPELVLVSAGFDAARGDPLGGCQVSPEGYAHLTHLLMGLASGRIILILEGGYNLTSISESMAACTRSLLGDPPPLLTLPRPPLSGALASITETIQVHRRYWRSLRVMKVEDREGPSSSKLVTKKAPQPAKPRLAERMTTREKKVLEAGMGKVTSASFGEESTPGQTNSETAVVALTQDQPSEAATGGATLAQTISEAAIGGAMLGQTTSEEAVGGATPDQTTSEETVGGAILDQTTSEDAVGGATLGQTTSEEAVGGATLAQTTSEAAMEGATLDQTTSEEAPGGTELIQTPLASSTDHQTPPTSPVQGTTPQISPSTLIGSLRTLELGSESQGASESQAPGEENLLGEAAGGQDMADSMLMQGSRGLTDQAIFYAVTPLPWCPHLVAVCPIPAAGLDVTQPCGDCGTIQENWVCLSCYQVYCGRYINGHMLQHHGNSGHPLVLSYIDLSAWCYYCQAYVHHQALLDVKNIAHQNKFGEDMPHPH

[3] = biological target: HDAC9 (Homo sapiens, UniProt Q9UKV0); assay: HDAC activity assay, HDAC9
Chain of HDAC9 (Q9UKV0 whole entry): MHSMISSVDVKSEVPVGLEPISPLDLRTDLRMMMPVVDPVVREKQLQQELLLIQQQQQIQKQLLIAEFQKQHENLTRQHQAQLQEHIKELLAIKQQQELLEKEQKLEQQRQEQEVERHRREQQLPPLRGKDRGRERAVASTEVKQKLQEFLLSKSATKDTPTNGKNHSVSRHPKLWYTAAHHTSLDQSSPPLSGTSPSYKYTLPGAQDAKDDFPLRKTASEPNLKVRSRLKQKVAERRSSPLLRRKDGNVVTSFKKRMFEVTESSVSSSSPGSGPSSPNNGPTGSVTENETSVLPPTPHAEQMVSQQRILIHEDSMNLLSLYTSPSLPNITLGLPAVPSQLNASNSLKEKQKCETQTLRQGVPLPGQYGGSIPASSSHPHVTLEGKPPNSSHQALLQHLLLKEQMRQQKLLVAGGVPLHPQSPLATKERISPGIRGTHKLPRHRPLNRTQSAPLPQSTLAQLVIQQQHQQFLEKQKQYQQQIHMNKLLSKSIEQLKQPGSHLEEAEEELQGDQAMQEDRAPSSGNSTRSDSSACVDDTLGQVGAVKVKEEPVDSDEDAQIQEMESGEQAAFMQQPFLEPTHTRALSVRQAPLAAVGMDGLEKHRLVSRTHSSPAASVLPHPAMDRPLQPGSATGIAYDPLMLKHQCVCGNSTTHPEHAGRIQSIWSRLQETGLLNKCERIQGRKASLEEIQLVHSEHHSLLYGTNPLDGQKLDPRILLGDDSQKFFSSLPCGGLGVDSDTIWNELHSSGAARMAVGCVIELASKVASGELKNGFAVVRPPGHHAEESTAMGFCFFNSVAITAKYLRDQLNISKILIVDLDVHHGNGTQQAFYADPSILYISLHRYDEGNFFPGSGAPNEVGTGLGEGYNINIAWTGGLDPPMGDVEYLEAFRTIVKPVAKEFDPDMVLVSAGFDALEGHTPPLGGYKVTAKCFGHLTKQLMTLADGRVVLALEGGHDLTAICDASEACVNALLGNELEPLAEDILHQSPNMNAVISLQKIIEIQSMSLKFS

[4] = biological target: T2, HDAC7 (Homo sapiens, UniProt Q8WUI4); assay: HDAC activity assay, HDAC7
T2 sequence (Q8WUI4 1-952): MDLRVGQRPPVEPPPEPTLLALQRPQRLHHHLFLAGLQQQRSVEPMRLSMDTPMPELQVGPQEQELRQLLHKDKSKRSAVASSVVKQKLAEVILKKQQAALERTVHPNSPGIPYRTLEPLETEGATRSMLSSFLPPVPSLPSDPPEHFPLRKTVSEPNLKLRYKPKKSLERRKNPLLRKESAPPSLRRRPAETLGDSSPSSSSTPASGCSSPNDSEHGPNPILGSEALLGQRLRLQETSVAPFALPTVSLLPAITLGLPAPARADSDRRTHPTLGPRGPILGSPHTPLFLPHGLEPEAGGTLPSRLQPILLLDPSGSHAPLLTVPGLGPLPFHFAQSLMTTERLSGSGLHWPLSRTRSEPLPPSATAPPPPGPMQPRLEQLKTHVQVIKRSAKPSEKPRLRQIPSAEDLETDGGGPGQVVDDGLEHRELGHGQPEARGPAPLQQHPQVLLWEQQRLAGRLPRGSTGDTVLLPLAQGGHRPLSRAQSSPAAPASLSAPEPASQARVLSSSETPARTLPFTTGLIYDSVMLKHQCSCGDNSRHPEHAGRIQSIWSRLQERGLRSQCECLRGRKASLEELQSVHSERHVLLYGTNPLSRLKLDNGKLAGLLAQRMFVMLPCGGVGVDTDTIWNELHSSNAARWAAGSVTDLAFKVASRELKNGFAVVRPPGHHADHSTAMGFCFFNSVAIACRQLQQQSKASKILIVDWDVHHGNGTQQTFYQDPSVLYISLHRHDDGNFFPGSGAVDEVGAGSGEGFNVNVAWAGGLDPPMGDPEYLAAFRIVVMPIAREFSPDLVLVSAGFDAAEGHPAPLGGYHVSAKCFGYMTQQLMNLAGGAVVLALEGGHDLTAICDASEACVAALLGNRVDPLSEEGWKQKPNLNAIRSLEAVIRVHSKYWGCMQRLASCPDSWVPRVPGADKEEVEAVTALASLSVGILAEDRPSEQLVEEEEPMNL

Chain of HDAC4 (P56524 whole entry, species assumed): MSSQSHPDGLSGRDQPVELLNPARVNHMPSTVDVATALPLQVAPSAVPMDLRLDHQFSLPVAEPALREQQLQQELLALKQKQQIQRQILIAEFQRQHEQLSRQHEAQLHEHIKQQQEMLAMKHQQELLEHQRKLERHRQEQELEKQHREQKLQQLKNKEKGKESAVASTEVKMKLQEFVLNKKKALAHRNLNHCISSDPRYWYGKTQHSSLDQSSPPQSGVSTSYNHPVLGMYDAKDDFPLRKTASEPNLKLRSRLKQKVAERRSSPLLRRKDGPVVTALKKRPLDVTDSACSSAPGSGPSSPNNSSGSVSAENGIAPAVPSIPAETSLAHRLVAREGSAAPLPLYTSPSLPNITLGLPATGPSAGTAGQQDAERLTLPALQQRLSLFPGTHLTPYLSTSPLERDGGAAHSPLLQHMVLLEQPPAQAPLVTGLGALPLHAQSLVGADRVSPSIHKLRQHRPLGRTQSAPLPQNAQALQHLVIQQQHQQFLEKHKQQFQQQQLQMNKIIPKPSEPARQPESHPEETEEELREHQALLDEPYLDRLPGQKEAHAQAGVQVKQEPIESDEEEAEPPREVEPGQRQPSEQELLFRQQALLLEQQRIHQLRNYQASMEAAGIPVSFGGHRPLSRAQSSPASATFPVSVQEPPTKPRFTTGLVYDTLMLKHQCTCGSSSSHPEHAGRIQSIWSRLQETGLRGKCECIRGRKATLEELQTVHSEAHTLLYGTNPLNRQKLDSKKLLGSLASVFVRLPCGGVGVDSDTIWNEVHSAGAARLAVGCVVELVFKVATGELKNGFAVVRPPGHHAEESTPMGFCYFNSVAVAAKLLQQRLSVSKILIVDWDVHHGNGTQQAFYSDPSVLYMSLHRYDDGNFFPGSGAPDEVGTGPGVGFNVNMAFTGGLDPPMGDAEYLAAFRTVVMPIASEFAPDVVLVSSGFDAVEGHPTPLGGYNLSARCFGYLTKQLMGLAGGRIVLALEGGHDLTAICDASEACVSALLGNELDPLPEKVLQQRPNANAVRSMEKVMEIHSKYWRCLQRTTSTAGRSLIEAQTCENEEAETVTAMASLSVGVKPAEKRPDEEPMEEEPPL

Compound | IC50 [1] | IC50 [2] | IC50 [3] | IC50 [4]
N#Cc1ccc2c(c1)Oc1ccccc1N2Cc1ccc(C(=O)NO)cc1 [Compound 16, N-Hydroxy-4-[(3-cyano-10H-phenoxazin-10-yl)methyl]benzamide] | 3.23 ± 0.59 µM | 0.02 µM | 4.08 ± 0.2 µM | 1.22 ± 0.32 µM
O=C(NO)c1ccc(CN2c3ccccc3Oc3cc(C(=O)Nc4ccccc4)ccc32)cc1 [Compound 12d, N-Hydroxy-4-[(3-phenylcarbamoylphenoxazin-10-yl)methyl]benzamide] | 2.94 ± 0.52 µM | 0.0431 ± 0.003 µM | 3.64 ± 0.06 µM | 1.58 ± 0.3 µM
O=C(NO)c1ccc(CN2c3ccccc3Oc3ccc(C(=O)Nc4ccccc4)cc32)cc1 [Compound 12b, N-Hydroxy-4-[(2-phenylcarbamoylphenoxazin-10-yl)methyl]benzamide] | 3.66 ± 0.22 µM | 0.046 ± 0.002 µM | 3.49 ± 0.7 µM | 2.26 ± 0.01 µM
NC(=O)c1ccc2c(c1)Oc1ccccc1N2Cc1ccc(C(=O)NO)cc1 [Compound 7e, N-Hydroxy-4-[(3-carbamoyl-10H-phenoxazin-10-yl)methyl]benzamide] | 1.41 ± 0.18 µM | 0.008 µM | 1.04 ± 0.2 µM | 0.52 ± 0.01 µM
O=C(NO)c1ccc(CN2c3ccccc3Oc3ccccc32)cc1 [Compound 7a, N-Hydroxy-4-[(10H-phenoxazin-10-yl)methyl]benzamide] | 4.32 ± 0.11 µM | 0.017 ± 0.003 µM | 2.2 ± 0.01 µM | 0.79 ± 0.03 µM
O=C(NO)c1ccc(CN2c3ccccc3Oc3cc(C(=O)Nc4ccc(C(=O)c5ccccc5)cc4)ccc32)cc1 [Compound 12c, N-Hydroxy-4-{[3–(4-benzoylphenyl)carbamoyl-phenoxazin-10-yl]methyl}benzamide] | 2.07 ± 0.14 µM | 0.0748 ± 0.002 µM | 15.2 ± 0.5 µM | 0.46 ± 0.02 µM
O=C(NO)c1ccc(CN2c3ccccc3Oc3cc(Br)ccc32)cc1 [Compound 18, N-Hydroxy-4-[(3-bromo-10H-phenoxazin-10-yl)methyl]benzamide] | 3.18 ± 0.33 µM | 0.015 µM | 1.56 ± 0.19 µM | 1.75 ± 0.01 µM
O=C(NO)c1ccc(CN2c3ccccc3Oc3cc(-c4ccccc4)ccc32)cc1 [Compound 20, N-Hydroxy-4-[(3-phenyl-10H-phenoxazin-10-yl)methyl]benzamide] | 8.06 ± 0.21 µM | 0.023 ± 0.003 µM | 6.32 ± 2.06 µM | 5.12 ± 0.02 µM
